This passage reports T/C results from PubChem BioAssay AID330 (DTP/NCI, 2004).

Values joined by “and” are separate entries in the source; they are usually repeats but may differ in a detail not shown here. Equal values may be shown once. Toxic doses and inconclusive results are not listed.

The test concerns P388 leukemia ip, CD2F1 mice, survival T/C. As to the kind of experiment: NCI In Vivo Anticancer Drug Screen. Data for tumor model P388 Leukemia (intraperitoneal) in CD2F1 (CDF1) mice. The note with it: endpoint: median survival time, higher = longer survival. An outline of the steps: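 Mice carrying the transplanted tumor received test compound or vehicle. Survival was recorded in each group, and the value is the treated-group measurement divided by that of the vehicle-treated control group.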

Setting [1] is: dose: 100.0 mg/kg/injection, schedule: Q01DX009 (ip), vehicle: saline with Tween-80.
[2] abbreviates: dose: 200.0 mg/kg/injection, schedule: Q01DX009 (ip), vehicle: saline with Tween-80.
Where [3] appears, read: dose: 60.0 mg/kg/injection, schedule: Q01DX005 (ip), vehicle: saline with Tween-80.
[4] abbreviates: dose: 120.0 mg/kg/injection, schedule: Q01DX005 (ip), vehicle: saline with Tween-80.
Setting [5] is: dose: 240.0 mg/kg/injection, schedule: Q01DX005 (ip), vehicle: saline with Tween-80.
The mark [6] stands for this setting: dose: 50.0 mg/kg/injection, schedule: Q01DX009 (ip), vehicle: saline with Tween-80.
Setting [7] is: dose: 50.0 mg/kg/injection, schedule: Q01DX005 (ip), vehicle: saline with Tween-80.

Turning to `NC(C=O)C(O)C(O)C(O)CO` (stereo not given), the T/C is 109 % of control under setting [1]; 100 % of control (dose: 100.0 mg/kg/injection, schedule: Q04DX003 (ip), vehicle: saline sonified); 95 % of control under setting [2]; 100 % of control (dose: 200.0 mg/kg/injection, schedule: Q04DX003 (ip), vehicle: saline sonified); 95 % of control (dose: 400.0 mg/kg/injection, schedule: Q01DX009 (ip), vehicle: saline with Tween-80); 90 % of control (dose: 400.0 mg/kg/injection, schedule: Q04DX003 (ip), vehicle: saline sonified).
Take `CCCCNC(=O)N1C2C3CCC(C)(OC3(C)C)C21` (stereo not given): the T/C by setting is: (dose: 50.0 mg/kg/injection, schedule: Q01DX005 (ip), vehicle: saline) 101 % of control; (dose: 100.0 mg/kg/injection, schedule: Q01DX005 (ip), vehicle: saline) 101 % of control; (dose: 200.0 mg/kg/injection, schedule: Q01DX005 (ip), vehicle: saline) 102 % of control.
Regarding `COc1ccc(-c2c([O-])oc(-c3ccccc3)[n+]2C)cc1`, the T/C is 98 % of control under setting [3], 96 % of control under setting [4] and 98 % of control under setting [5].
On to `C=C1C(=O)C23OC2C1CCC(=O)C1(C)CC[C@H](OC(C)=O)C(C)(C)[C@H]1CC3O` (stereo not given in full), for which the T/C (dose: 5.0 mg/kg/injection, schedule: Q01DX005 (ip), vehicle: Klucel (hydroxypropylcellulose) (HPC)) is 104 % of control; the T/C (dose: 10.0 mg/kg/injection, schedule: Q01DX005 (ip), vehicle: Klucel (hydroxypropylcellulose) (HPC)) is 109 % of control; the T/C (dose: 20.0 mg/kg/injection, schedule: Q01DX005 (ip), vehicle: Klucel (hydroxypropylcellulose) (HPC)) is 111 % of control; the T/C (dose: 40.0 mg/kg/injection, schedule: Q01DX005 (ip), vehicle: Klucel (hydroxypropylcellulose) (HPC)) is 110 % of control and 114 % of control.
With `O=C(NNC(=O)c1cccc(C(=O)NNC(=O)c2ccc(Cl)c(Cl)c2)n1)c1ccc(Cl)c(Cl)c1`, the T/C runs as follows: (dose: 12.5 mg/kg/injection, schedule: Q01DX009 (ip), vehicle: Klucel (hydroxypropylcellulose) (HPC)) 106 % of control and 98 % of control; (dose: 25.0 mg/kg/injection, schedule: Q01DX009 (ip), vehicle: Klucel (hydroxypropylcellulose) (HPC)) 108 % of control and 95 % of control; (dose: 50.0 mg/kg/injection, schedule: Q01DX009 (ip), vehicle: Klucel (hydroxypropylcellulose) (HPC)) 105 % of control and 122 % of control; (dose: 100.0 mg/kg/injection, schedule: Q01DX009 (ip), vehicle: Klucel (hydroxypropylcellulose) (HPC)) 119 % of control.
Turning to `Cn1c([N+](=O)[O-])cnc1/C=[N+](\[O-])C1CCCCC1`, the T/C reads like this: (dose: 50.0 mg/kg/injection, schedule: Q01DX009 (ip), vehicle: saline) 100 % of control; (dose: 100.0 mg/kg/injection, schedule: Q01DX009 (ip), vehicle: saline) 100 % of control; (dose: 200.0 mg/kg/injection, schedule: Q01DX009 (ip), vehicle: saline) 102 % of control.
For the molecule `O=S(=O)(Nc1ccccn1)c1ccc(NCc2c3ccccc3nc3cc(Cl)ccc23)cc1`, the T/C is 97 % of control under setting [3], 98 % of control under setting [4] and 96 % of control under setting [5].
Regarding `CN1C(=O)c2c(ccc3c2OCO3)[C@@]2(C)C(=O)Cc3cc4c(cc3[C@H]12)OCO4`, the T/C is 89 % of control (dose: 6.25 mg/kg/injection, schedule: Q01DX005 (ip), vehicle: Klucel (hydroxypropylcellulose) (HPC)) and 88 % of control (dose: 12.5 mg/kg/injection, schedule: Q01DX005 (ip), vehicle: Klucel (hydroxypropylcellulose) (HPC)).
With `CC(=O)Nn1cnc2ccccc2c1=O`, the T/C is, setting by setting: (dose: 25.0 mg/kg/injection, schedule: Q04DX003 (ip), vehicle: saline with Tween-80) 97 % of control; (dose: 50.0 mg/kg/injection, schedule: Q04DX003 (ip), vehicle: saline with Tween-80) 90 % of control; (dose: 100.0 mg/kg/injection, schedule: Q04DX003 (ip), vehicle: saline with Tween-80) 93 % of control; (dose: 200.0 mg/kg/injection, schedule: Q04DX003 (ip), vehicle: saline with Tween-80) 101 % of control.
For `CC(C)(C)N1COCO[C@H]2CCC[C@@H]21`, the T/C reads like this: (dose: 25.0 mg/kg/injection, schedule: Q04DX002 (ip), vehicle: Klucel (hydroxypropylcellulose) (HPC)) 100 % of control; (dose: 50.0 mg/kg/injection, schedule: Q04DX002 (ip), vehicle: Klucel (hydroxypropylcellulose) (HPC)) 102 % of control; (dose: 100.0 mg/kg/injection, schedule: Q04DX002 (ip), vehicle: Klucel (hydroxypropylcellulose) (HPC)) 114 % of control; (dose: 200.0 mg/kg/injection, schedule: Q04DX002 (ip), vehicle: Klucel (hydroxypropylcellulose) (HPC)) 100 % of control and 123 % of control.
On to `CC(c1ccccc1)N1C(=O)CSC1=S` (stereo not given), for which the T/C (dose: 25.0 mg/kg/injection, schedule: Q01DX009 (ip), vehicle: saline with Tween-80) is 100 % of control; the T/C under setting [6] is 100 % of control; the T/C under setting [1] was 100 % of control; the T/C under setting [2] was 100 % of control.
In the case of `COc1cccc(C(Cc2ccccc2)NCc2ccccc2)c1O` (stereo not given), the T/C by setting is: under setting [7], 105 % of control; (dose: 100.0 mg/kg/injection, schedule: Q01DX005 (ip), vehicle: saline with Tween-80) 103 % of control; (dose: 200.0 mg/kg/injection, schedule: Q01DX005 (ip), vehicle: saline with Tween-80) 101 % of control.
Consider `CCCCOCCOCCOCCOCCCN1C(=O)C2C3C=CC(C3)C2C1=O` (stereo not given), for which the T/C is, setting by setting: (dose: 50.0 mg/kg/injection, schedule: Q01DX005 (ip), vehicle: Klucel (hydroxypropylcellulose) (HPC)) 97 % of control; (dose: 100.0 mg/kg/injection, schedule: Q01DX005 (ip), vehicle: Klucel (hydroxypropylcellulose) (HPC)) 100 % of control.
`N#Cc1c2c(c(=S)n(-c3ccc(Cl)cc3)c1N)CCCC2`: the T/C (dose: 60.0 mg/kg/injection, schedule: Q01DX005 (ip), vehicle: Klucel + Tween-80) is 92 % of control; the T/C (dose: 120.0 mg/kg/injection, schedule: Q01DX005 (ip), vehicle: Klucel + Tween-80) is 91 % of control; the T/C (dose: 240.0 mg/kg/injection, schedule: Q01DX005 (ip), vehicle: Klucel + Tween-80) is 91 % of control.
Take `C=C1C=C(C)C(=O)O1`: the T/C is 99 % of control (dose: 100.0 mg/kg/injection, schedule: Q01DX001 (ip), vehicle: saline with Tween-80); 103 % of control (dose: 200.0 mg/kg/injection, schedule: Q01DX001 (ip), vehicle: saline with Tween-80); 105 % of control (dose: 400.0 mg/kg/injection, schedule: Q01DX001 (ip), vehicle: saline with Tween-80).
Take `NC(=O)[C@H]1C[C@H](O)CN1C(=O)c1cnc2ccccc2c1`: the T/C (dose: 60.0 mg/kg/injection, schedule: Q01DX005 (ip), vehicle: saline) was 112 % of control; the T/C (dose: 120.0 mg/kg/injection, schedule: Q01DX005 (ip), vehicle: saline) was 98 % of control; the T/C (dose: 240.0 mg/kg/injection, schedule: Q01DX005 (ip), vehicle: saline) is 102 % of control.
For `C[C@H]1C[C@H](c2ccccc2)[C@@H](c2ccccc2)C(=O)O1`, the T/C is, setting by setting: (dose: 100.0 mg/kg/injection, schedule: Q04DX003 (ip), vehicle: Klucel (hydroxypropylcellulose) (HPC)) 93 % of control; (dose: 200.0 mg/kg/injection, schedule: Q04DX003 (ip), vehicle: Klucel (hydroxypropylcellulose) (HPC)) 92 % of control; (dose: 400.0 mg/kg/injection, schedule: Q04DX003 (ip), vehicle: Klucel (hydroxypropylcellulose) (HPC)) 92 % of control.
`O=C(NCCCCCCCNC(=O)C12CC3CC(CC(C3)C1)C2)C12CC3CC(CC(C3)C1)C2`: the T/C (dose: 12.5 mg/kg/injection, schedule: Q01DX005 (ip), vehicle: saline with Tween-80) is 93 % of control; the T/C (dose: 25.0 mg/kg/injection, schedule: Q01DX005 (ip), vehicle: saline with Tween-80) is 89 % of control; the T/C under setting [7] is 88 % of control and 89 % of control.
Regarding `COC(=O)[CH2][Sn]([CH2]C(=O)OC)([c]1ccccc1)[c]1ccccc1`, the T/C is 120 % of control (dose: 0.39 mg/kg/injection, schedule: Q01DX005 (ip), vehicle: Klucel (hydroxypropylcellulose) (HPC)) and 112 % of control (dose: 0.79 mg/kg/injection, schedule: Q01DX005 (ip), vehicle: Klucel (hydroxypropylcellulose) (HPC)).
For `COc1cc(N=Nc2ccc([N+](=O)[O-])cc2)ccc1N(CCCl)CCCl`, the T/C under setting [6] is 151 % of control; the T/C under setting [1] was 153 % of control and 156 % of control; the T/C under setting [2] was 168 % of control and 201 % of control.
